# Measured values published in US7544377B2, “Chewable compositions with fast release magnolia bark extract” (GIC Innovations Company, priority 2005, dated 2009).
# Legend:
# [1] = system: bacteria from freshly-collected simulated whole saliva (biofilm); test: Mixed culture saliva biofilm on saliva-coated hydroxyapatite discs, timed exposure to actives; assay type: cell-based; conditions: for % OD reduction (600 nm): Table 8
# Protocol: Although useful to show the comparative effect of Magnolia Bark Extract on biofilm formation and MIC growth, the foregoing test procedure may not effectively mimic the in vivo exposure of an oral care product to a developing plaque biofilm. In an in vivo situation, the active could be exposed to the plaque for a defined period of time at a set frequency (for example, for 5 minutes, three times a day). Therefore, a series of comparative experiments were conducted to mimic the in vivo use of potential active ingredients. To perform the tests the saliva compositions listed below in Tables 2 and 3 were prepared.
# A mixed culture system that utilizes the bacteria from freshly-collected simulated whole saliva was used. Saliva cell pellets were used to inoculate saliva-coated hydroxyapatite (S-HA) discs. The discs were placed in 24-well cell culture plates and incubated for up to 3 days. Biofilms were exposed to actives on days 2 and 3 (starting at 18 hours), and quantified on day 4. The number of bacteria was determined by spectrophotometric absorbance or optical density (OD) at 600 nm. The five phases of the experiment were: pellicle formation; bacterial attachment; biofilm growth; exposure to actives; and bacterial enumeration.
# To form the pellicles, HA Discs were ultrasonically washed in deionized water and air-dried, then autoclaved. The discs were placed in a 24-well plate with 1 ml 50% sterile saliva (1 part sterile whole saliva: 1 part saliva buffer, filter sterilize after preparation) for 2 hours on slow agitation at room temperature. The saliva was suctioned and then the discs were transferred to fresh wells for bacterial attachment.
# To form the biofilms, the bacterial suspension was removed, and the discs were transferred to fresh wells. One ml of supplemented saliva medium was added and the plate was placed in the incubator for overnight incubation and for the duration of the experiment (up to 72 hours).
# A stock solution of 1% Magnolia Bark Extract in 60% ethanol was prepared. Magnolia Bark Extract samples were prepared having a concentration range of 125, 250, 500, and 1000 μg/ml (ppm) in a Phosphate-Buffered-Saline (PBS) solution, where the negative control was PBS and the positive control was CHX having a concentration of 0.12%.
# One-ml quantities of active ingredients and controls were placed into fresh wells, and the discs were transferred to these wells for 5 minutes. The chlorhexidine control exposure was one minute, two times a day to mimic the standard mouth-rinse procedure. The exposure to active ingredient was carried out at 8:00 AM, 12:00 and 4:00 PM. After the timed exposure, the solution was removed and the discs washed twice with PBS and then transferred to fresh medium. For some experiments, the medium used during the day was TSB (Tryptic Soy Broth) with a 50 μl 40% sterile sucrose solution added to each well (to give a 2% sucrose solution). The medium was not replaced after the mid-day exposure.
# After overnight incubation (day 2), discs were exposed to controls and actives. On day 3 the biofilms were again exposed to tests and controls. On day 4 the discs were removed from the medium, the medium pH was measured to obtain an indication of metabolic activity, and the discs were placed into tubes with 2.5 ml PBS, vortexed for 20 sec, and then placed into the ultrasonic bath for another 20 sec. The suspension was transferred into cuvettes and the bacterial cell density determined by OD measurements at 600 nm.
# To evaluate the effect of Magnolia Bark Extract in combination with the surface active agent, sodium lauryl sulfate, five active ingredient solutions were prepared using the procedures described above. […] Also, the MBE solutions were prepared to have a concentration of 500 ppm. Sodium lauryl sulfate was added to two of the Magnolia Bark Extract solutions to obtain SLS concentrations of 0.05% and 0.1% in the Magnolia Bark Extract solutions. […]
# [2] = system: incubated saliva; test: MIC of surface active agents and emulsifiers, two-fold broth dilution; assay type: cell-based; conditions: 24 hours at 37° C., lowest dilution not turbid
# Protocol: (§1) To evaluate the germ-kill efficacy and synergist effect when two or more germ-kill actives are combined, testing was performed to determine the ratio of MBE to surface active agent. The germ-kill active and/or surface active agent were dissolved in ethanol or sterile water to give an initial concentration 0.1% to 1%. The solution was diluted with a nutrient broth to give an initial concentration of 0.05% to 0.5%, which was then serially diluted two-fold so that each subsequent dilution contained 50% of the compound concentration of the previous dilution while maintaining a constant level of nutrients for each dilution. These dilutions were inoculated with representative oral microorganisms, or incubated saliva, and incubated for 24 hours at 37° C. For each surface active agent, the lowest dilution that was not turbid was registered as the MIC. The MBC was determined by transferring 10 microliter of liquid from non-turbid tubes to fresh growth media and incubated for 48 hours.
# [3] = system: S. mutans; test: MIC and fractional inhibitory index of MBE / surface active agent combinations; assay type: cell-based, Streptococcus mutans; conditions: 24 hours at 37° C.
# Protocol: as §1
# (1) where an FIC value of less than 1.0 is synergistic, an FIC between 1.0 and 2.0 is additive, and an FIC greater than 2.0 is antagonistic.
compound,measurement,setting,value
"[H]/N=C(\N/C(=N/[H])NCCCCCCNC(=N)NC(=N)Nc1ccc(Cl)cc1)Nc1ccc(Cl)cc1 [CHX, chlorhexidine]","pH (medium pH, indication of metabolic activity)","[1]; Table 5, CHX 0.12%, exposure one minute, two times a day",8.8
same,"% OD reduction (600 nm, compared to PBS control)","[1]; Table 6, CHX 0.12%, exposure one minute, two times a day",84%
same,"pH (medium pH, indication of metabolic activity)","[1]; Table 7, CHX 0.1% (1000 ppm)",8.8
same,% OD reduction (600 nm),[1]; CHX 0.1% (1000 ppm),94%
N=C(NCCCCCCNC(=N)NC(=N)Nc1ccc(Cl)cc1)NC(=N)Nc1ccc(Cl)cc1.O=C(O)[C@H](O)[C@@H](O)[C@H](O)[C@H](O)CO.O=C(O)[C@H](O)[C@@H](O)[C@H](O)[C@H](O)CO [Chlorhexidine gluconate],MIC (ppm),[2],2 ppm
same,MIC/ppm,[3],2 ppm
"CCCCCCCCCCCCOS(=O)(=O)[O-].[Na+] [SLS, sodium lauryl sulfate]","pH (medium pH, indication of metabolic activity)","[1]; Table 7, SLS 1000 ppm",5.7
same,% OD reduction (600 nm),[1]; SLS 1000 ppm,61%
Sodium Brasslate,MIC (ppm),[2],500 ppm
Sodium Stearoyl Lactylate,MIC (ppm),[2],>3000 ppm
Sucrose Distearate,MIC (ppm),[2],>500 ppm
Sucrose Stearate,MIC (ppm),[2],>500 ppm
